Assay results taken from PubChem BioAssay (NCI).
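Compound exposure: 48 hours, 5 concentrations, 96-well plates. Definition used: TGI = concentration required for complete inhibition of growth.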

What was measured:
Assay in all cases: DTP human tumour cell line panel, 48 h
M14 melanoma = tested on: M14 melanoma
HL-60(TB) leukemia = tested on: HL-60(TB) leukemia
NCI-H23 lung = tested on: NCI-H23 lung
HT29 colon = tested on: HT29 colon
RXF 393 renal = tested on: RXF 393 renal
DU-145 prostate = tested on: DU-145 prostate
UACC-257 melanoma = tested on: UACC-257 melanoma
BT-549 breast = tested on: BT-549 breast
CAKI-1 renal = tested on: CAKI-1 renal
SF-295 CNS = tested on: SF-295 CNS
SF-268 CNS = tested on: SF-268 CNS
PC-3 prostate = tested on: PC-3 prostate
OVCAR-4 ovarian = tested on: OVCAR-4 ovarian
SN12C renal = tested on: SN12C renal
MDA-MB-435 = tested on: MDA-MB-435
MDA-MB-231 breast = tested on: MDA-MB-231 breast
SR leukemia = tested on: SR leukemia
IGROV1 ovarian = tested on: IGROV1 ovarian
UO-31 renal = tested on: UO-31 renal
SK-MEL-5 melanoma = tested on: SK-MEL-5 melanoma
LOX IMVI melanoma = tested on: LOX IMVI melanoma
786-0 renal = tested on: 786-0 renal
OVCAR-8 ovarian = tested on: OVCAR-8 ovarian
SK-OV-3 ovarian = tested on: SK-OV-3 ovarian
MDA-N = tested on: MDA-N
OVCAR-3 ovarian = tested on: OVCAR-3 ovarian
TK-10 renal = tested on: TK-10 renal
SNB-19 CNS = tested on: SNB-19 CNS
HOP-92 NSCLC = tested on: HOP-92 NSCLC
T-47D breast = tested on: T-47D breast
CCRF-CEM leukemia = tested on: CCRF-CEM leukemia
HS 578T breast = tested on: HS 578T breast
NCI/ADR-RES ovarian = tested on: NCI/ADR-RES ovarian
HCT-116 colon = tested on: HCT-116 colon
NCI-H522 lung = tested on: NCI-H522 lung
COLO 205 colon = tested on: COLO 205 colon
NCI-H460 lung = tested on: NCI-H460 lung
EKVX NSCLC = tested on: EKVX NSCLC
RPMI-8226 leukemia = tested on: RPMI-8226 leukemia
U251 CNS = tested on: U251 CNS
MCF7 breast = tested on: MCF7 breast
OVCAR-5 ovarian = tested on: OVCAR-5 ovarian
MALME-3M melanoma = tested on: MALME-3M melanoma
HOP-62 NSCLC = tested on: HOP-62 NSCLC
ACHN renal = tested on: ACHN renal
UACC-62 melanoma = tested on: UACC-62 melanoma
A498 renal = tested on: A498 renal
K-562 leukemia = tested on: K-562 leukemia
SNB-75 CNS = tested on: SNB-75 CNS
SK-MEL-28 melanoma = tested on: SK-MEL-28 melanoma
MOLT-4 leukemia = tested on: MOLT-4 leukemia
A549 NSCLC = tested on: A549 NSCLC
SK-MEL-2 melanoma = tested on: SK-MEL-2 melanoma
NCI-H226 lung = tested on: NCI-H226 lung
SF-539 CNS = tested on: SF-539 CNS
SW-620 colon = tested on: SW-620 colon
HCT-15 colon = tested on: HCT-15 colon
KM12 colon = tested on: KM12 colon

SMILES: Oc1c(CN2CCOCC2)ccc(CN2CCOCC2)c1O
- TGI (M14 melanoma): 84 µM
- TGI (HL-60(TB) leukemia): 27.2 µM
- TGI (NCI-H23 lung): > 100 µM
- TGI (HT29 colon): > 100 µM
- TGI (RXF 393 renal): > 100 µM
- TGI (DU-145 prostate): 83 µM
- TGI (UACC-257 melanoma): 88.7 µM
- TGI (BT-549 breast): > 100 µM
- TGI (CAKI-1 renal): > 100 µM
- TGI (SF-295 CNS): 96.3 µM
- TGI (SF-268 CNS): > 100 µM
- TGI (PC-3 prostate): > 100 µM
- TGI (OVCAR-4 ovarian): > 100 µM
- TGI (SN12C renal): 88.4 µM
- TGI (MDA-MB-435): > 100 µM
- TGI (MDA-MB-231 breast): > 100 µM
- TGI (SR leukemia): > 100 µM
- TGI (IGROV1 ovarian): > 100 µM
- TGI (UO-31 renal): 72.2 µM
- TGI (SK-MEL-5 melanoma): 67 µM
- TGI (LOX IMVI melanoma): > 100 µM
- TGI (786-0 renal): > 100 µM
- TGI (OVCAR-8 ovarian): > 100 µM
- TGI (SK-OV-3 ovarian): > 100 µM
- TGI (MDA-N): > 100 µM
- TGI (OVCAR-3 ovarian): 66.3 µM
- TGI (TK-10 renal): > 100 µM
- TGI (SNB-19 CNS): > 100 µM
- TGI (HOP-92 NSCLC): > 100 µM
- TGI (T-47D breast): > 100 µM
- TGI (CCRF-CEM leukemia): 12.9 µM
- TGI (HS 578T breast): > 100 µM
- TGI (NCI/ADR-RES ovarian): > 100 µM
- TGI (HCT-116 colon): > 100 µM
- TGI (NCI-H522 lung): > 100 µM
- TGI (COLO 205 colon): > 100 µM
- TGI (NCI-H460 lung): 82.8 µM
- TGI (EKVX NSCLC): > 100 µM
- TGI (RPMI-8226 leukemia): > 100 µM
- TGI (U251 CNS): > 100 µM
- TGI (MCF7 breast): > 100 µM
- TGI (OVCAR-5 ovarian): > 100 µM
- TGI (MALME-3M melanoma): > 100 µM
- TGI (HOP-62 NSCLC): > 100 µM
- TGI (ACHN renal): > 100 µM
- TGI (UACC-62 melanoma): 61.2 µM
- TGI (A498 renal): > 100 µM
- TGI (K-562 leukemia): > 100 µM
- TGI (SNB-75 CNS): 75.3 µM
- TGI (SK-MEL-28 melanoma): > 100 µM
- TGI (MOLT-4 leukemia): > 100 µM
- TGI (A549 NSCLC): > 100 µM
- TGI (SK-MEL-2 melanoma): 94.6 µM
- TGI (NCI-H226 lung): 88.9 µM
- TGI (SF-539 CNS): > 100 µM
- TGI (SW-620 colon): > 100 µM
- TGI (HCT-15 colon): > 100 µM
- TGI (KM12 colon): > 100 µM

SMILES: NC(=S)N/N=C/c1c[nH]c2ccccc12
- TGI (M14 melanoma): > 100 µM
- TGI (HL-60(TB) leukemia): > 100 µM
- TGI (NCI-H23 lung): > 100 µM
- TGI (HT29 colon): > 100 µM
- TGI (RXF 393 renal): > 100 µM
- TGI (DU-145 prostate): > 100 µM
- TGI (UACC-257 melanoma): > 100 µM
- TGI (BT-549 breast): > 100 µM
- TGI (CAKI-1 renal): > 100 µM
- TGI (SF-295 CNS): > 100 µM
- TGI (SF-268 CNS): > 100 µM
- TGI (PC-3 prostate): > 100 µM
- TGI (OVCAR-4 ovarian): > 100 µM
- TGI (SN12C renal): > 100 µM
- TGI (MDA-MB-435): > 100 µM
- TGI (MDA-MB-231 breast): > 100 µM
- TGI (SR leukemia): > 100 µM
- TGI (IGROV1 ovarian): > 100 µM
- TGI (UO-31 renal): > 100 µM
- TGI (SK-MEL-5 melanoma): > 100 µM
- TGI (LOX IMVI melanoma): > 100 µM
- TGI (786-0 renal): > 100 µM
- TGI (OVCAR-8 ovarian): > 100 µM
- TGI (SK-OV-3 ovarian): > 100 µM
- TGI (MDA-N): > 100 µM
- TGI (OVCAR-3 ovarian): > 100 µM
- TGI (TK-10 renal): > 100 µM
- TGI (SNB-19 CNS): > 100 µM
- TGI (HOP-92 NSCLC): > 100 µM
- TGI (T-47D breast): > 100 µM
- TGI (CCRF-CEM leukemia): > 100 µM
- TGI (HS 578T breast): > 100 µM
- TGI (NCI/ADR-RES ovarian): > 100 µM
- TGI (HCT-116 colon): > 100 µM
- TGI (NCI-H522 lung): > 100 µM
- TGI (COLO 205 colon): > 100 µM
- TGI (NCI-H460 lung): > 100 µM
- TGI (EKVX NSCLC): > 100 µM
- TGI (RPMI-8226 leukemia): > 100 µM
- TGI (U251 CNS): > 100 µM
- TGI (MCF7 breast): > 100 µM
- TGI (OVCAR-5 ovarian): > 100 µM
- TGI (MALME-3M melanoma): > 100 µM
- TGI (HOP-62 NSCLC): > 100 µM
- TGI (ACHN renal): > 100 µM
- TGI (UACC-62 melanoma): > 100 µM
- TGI (A498 renal): > 100 µM
- TGI (K-562 leukemia): > 100 µM
- TGI (SNB-75 CNS): > 100 µM
- TGI (SK-MEL-28 melanoma): > 100 µM
- TGI (MOLT-4 leukemia): > 100 µM
- TGI (A549 NSCLC): > 100 µM
- TGI (SK-MEL-2 melanoma): > 100 µM
- TGI (NCI-H226 lung): > 100 µM
- TGI (SF-539 CNS): > 100 µM
- TGI (SW-620 colon): > 100 µM
- TGI (HCT-15 colon): > 100 µM
- TGI (KM12 colon): > 100 µM
